From patent US20180055032A1, “ODORS FOR PSYLLID TRAPPING, REPELLING AND CONTROL” (The Regents of the University of California, priority 2011, published 2018)
Where two headings read alike, the source gives them in different places.

What was measured:
Assay type in all cases: cell-based, Diaphorina citri
[1] = system: neuron 2A (rhinarial plate on flagellomere 2); assay: single-sensillum electrophysiology, odor response of neuron 2A; details: for response to inhibitory odors, 2A: Table 2, odor diluted to 10^−2, 50 μL in cartridge; for odor response (frequency of action potentials during stimulus minus baseline), 2A: Table 1, odor diluted to 1%, 50 μL in cartridge; as to all read-outs here: key: 0, no response; +, >50 spikes/second; ++, >100 spikes/second; +++, >150 spikes/second
[2] = system: neuron 7B (rhinarial plate on flagellomere 7); details: for odor response (frequency of action potentials during stimulus minus baseline), 7B: Table 1, odor diluted to 1%, 50 μL in cartridge; as to response to inhibitory odors, 7B: key: 0, no response; +, >50 spikes/second; ++, >100 spikes/second; +++, >150 spikes/second
[3] = system: neuron 6A (rhinarial plate on flagellomere 6); assay: single-sensillum electrophysiology, odor response of neuron 6A; details: for response to inhibitory odors, 6A: Table 2, odor diluted to 10^−2, 50 μL in cartridge; for odor response (frequency of action potentials during stimulus minus baseline), 6A: Table 1, odor diluted to 1%, 50 μL in cartridge
[4] = system: neuron 4B (rhinarial plate on flagellomere 4); details: for odor response (frequency of action potentials during stimulus minus baseline), 4B: Table 1, odor diluted to 1%, 50 μL in cartridge
[5] = system: neuron 4A (rhinarial plate on flagellomere 4); assay: single-sensillum electrophysiology, odor response of neuron 4A; details: for response to inhibitory odors, 4A: Table 2, odor diluted to 10^−2, 50 μL in cartridge; for odor response (frequency of action potentials during stimulus minus baseline), 4A: Table 1, odor diluted to 1%, 50 μL in cartridge
[6] = system: neuron 2C (rhinarial plate on flagellomere 2); assay: single-sensillum electrophysiology, odor response of neuron 2C; details: for response to inhibitory odors, 2C: Table 2, odor diluted to 10^−2, 50 μL in cartridge; for odor response (frequency of action potentials during stimulus minus baseline), 2C: Table 1, odor diluted to 1%, 50 μL in cartridge
[7] = system: neuron 6B (rhinarial plate on flagellomere 6); assay: single-sensillum electrophysiology, odor response of neuron 6B; details: for response to inhibitory odors, 6B: Table 2, odor diluted to 10^−2, 50 μL in cartridge; for odor response (frequency of action potentials during stimulus minus baseline), 6B: Table 1, odor diluted to 1%, 50 μL in cartridge
[8] = system: neuron 4C (rhinarial plate on flagellomere 4); assay: single-sensillum electrophysiology, odor response of neuron 4C; details: Table 2; odor diluted to 10^−2, 50 μL in cartridge; also: key: 0, no response; +, >50 spikes/second; ++, >100 spikes/second; +++, >150 spikes/second
[9] = system: neuron 7A (rhinarial plate on flagellomere 7); assay: single-sensillum electrophysiology, odor response of neuron 7A; details: for response to inhibitory odors, 7A: Table 2, odor diluted to 10^−2, 50 μL in cartridge; for odor response (frequency of action potentials during stimulus minus baseline), 7A: Table 1, odor diluted to 1%, 50 μL in cartridge; as to all read-outs here: key: 0, no response; +, >50 spikes/second; ++, >100 spikes/second; +++, >150 spikes/second
[10] = system: neuron 6C (rhinarial plate on flagellomere 6); assay: single-sensillum electrophysiology, odor response of neuron 6C; details: for response to inhibitory odors, 6C: Table 2, odor diluted to 10^−2, 50 μL in cartridge; for odor response (frequency of action potentials during stimulus minus baseline), 6C: Table 1, odor diluted to 1%, 50 μL in cartridge
[11] = system: neuron 2B (rhinarial plate on flagellomere 2); assay: single-sensillum electrophysiology, odor response of neuron 2B; details: for response to inhibitory odors, 2B: Table 2, odor diluted to 10^−2, 50 μL in cartridge; for odor response (frequency of action potentials during stimulus minus baseline), 2B: Table 1, odor diluted to 1%, 50 μL in cartridge
[12] = system: neuron 7C (rhinarial plate on flagellomere 7); assay: single-sensillum electrophysiology, odor response of neuron 7C; details: for response to inhibitory odors, 7C: Table 2, odor diluted to 10^−2, 50 μL in cartridge; for odor response (frequency of action potentials during stimulus minus baseline), 7C: Table 1, odor diluted to 1%, 50 μL in cartridge
[13] = Table 2, odor diluted to 10^−2, 50 μL in cartridge

CN1CCCCC1 [N-methylpiperidine]
response to inhibitory odors, 2A [1]: 0 | response to inhibitory odors, 7B [2, 13]: 0 | response to inhibitory odors, 6A [3]: 0 | response to inhibitory odors, 4B [4, 13]: 0 | response to inhibitory odors, 4A [5]: 0 | response to inhibitory odors, 2C [6]: 0 | response to inhibitory odors, 6B [7]: 0 | response to inhibitory odors, 4C [8]: 0 | response to inhibitory odors, 7A [9]: 0 | response to inhibitory odors, 6C [10]: 0 | response to inhibitory odors, 2B [11]: 0

CC(C)C(=O)O [isobutyric acid]
response to inhibitory odors, 2A [1]: 0 | response to inhibitory odors, 7B [2, 13]: 0 | response to inhibitory odors, 6A [3]: 0 | response to inhibitory odors, 7C [12]: 0 | response to inhibitory odors, 4A [5]: 0 | response to inhibitory odors, 2C [6]: 0 | response to inhibitory odors, 6B [7]: 0 | response to inhibitory odors, 7A [9]: 0 | response to inhibitory odors, 2B [11]: 0

Cl.Cl.NCCCCN [putrescine dihydrochloride]
response to inhibitory odors, 2A [1]: 0 | response to inhibitory odors, 7B [2]: 0 | response to inhibitory odors, 6A [3]: 0 | response to inhibitory odors, 7C [12]: 0 | response to inhibitory odors, 4B [4]: 0 | response to inhibitory odors, 4A [5]: 0 | response to inhibitory odors, 2C [6]: 0 | response to inhibitory odors, 6B [7]: 0 | response to inhibitory odors, 4C [8]: 0 | response to inhibitory odors, 7A [9]: 0 | response to inhibitory odors, 6C [10]: 0

CC1=CC[C@H]2C[C@@H]1C2(C)C [(−)-α-pinene]
odor response (frequency of action potentials during stimulus minus baseline), 2A [1]: 0 | odor response (frequency of action potentials during stimulus minus baseline), 7B [2]: 0 | odor response (frequency of action potentials during stimulus minus baseline), 6A [3]: 0 | odor response (frequency of action potentials during stimulus minus baseline), 7C [12]: 0 | odor response (frequency of action potentials during stimulus minus baseline), 4B [4]: + (+, >50 spikes/second) | odor response (frequency of action potentials during stimulus minus baseline), 4A [5]: 0 | odor response (frequency of action potentials during stimulus minus baseline), 2C [6]: 0 | odor response (frequency of action potentials during stimulus minus baseline), 6B [7]: + (+, >50 spikes/second) | odor response (frequency of action potentials during stimulus minus baseline), 7A [9]: 0 | odor response (frequency of action potentials during stimulus minus baseline), 6C [10]: 0 | odor response (frequency of action potentials during stimulus minus baseline), 2B [11]: 0

CC1CC(=O)O1 (stereo not drawn) [β-butyrolactone]
response to inhibitory odors, 2A [1]: 0 | response to inhibitory odors, 7B [2, 13]: 0 | response to inhibitory odors, 6A [3]: 0 | response to inhibitory odors, 7C [12]: 0 | response to inhibitory odors, 4A [5]: 0 | response to inhibitory odors, 2C [6]: 0 | response to inhibitory odors, 6B [7]: 0 | response to inhibitory odors, 4C [8]: 0 | response to inhibitory odors, 7A [9]: 0 | response to inhibitory odors, 6C [10]: 0 | response to inhibitory odors, 2B [11]: 0

C=C1CC[C@H]2C[C@@H]1C2(C)C [(−)-β-pinene]
odor response (frequency of action potentials during stimulus minus baseline), 2A [1]: 0 | odor response (frequency of action potentials during stimulus minus baseline), 7B [2]: 0 | odor response (frequency of action potentials during stimulus minus baseline), 6A [3]: 0 | odor response (frequency of action potentials during stimulus minus baseline), 7C [12]: 0 | odor response (frequency of action potentials during stimulus minus baseline), 4B [4]: + (+, >50 spikes/second) | odor response (frequency of action potentials during stimulus minus baseline), 4A [5]: 0 | odor response (frequency of action potentials during stimulus minus baseline), 2C [6]: 0 | odor response (frequency of action potentials during stimulus minus baseline), 6B [7]: + (+, >50 spikes/second) | odor response (frequency of action potentials during stimulus minus baseline), 7A [9]: 0 | odor response (frequency of action potentials during stimulus minus baseline), 6C [10]: 0 | odor response (frequency of action potentials during stimulus minus baseline), 2B [11]: 0

CCCCCC(=O)OCC [ethyl hexanoate]
response to inhibitory odors, 2A [1]: 0 | response to inhibitory odors, 7B [2, 13]: 0 | response to inhibitory odors, 6A [3]: 0 | response to inhibitory odors, 4B [4, 13]: 0 | response to inhibitory odors, 4A [5]: 0 | response to inhibitory odors, 2C [6]: 0 | response to inhibitory odors, 6B [7]: 0 | response to inhibitory odors, 4C [8]: 0 | response to inhibitory odors, 7A [9]: 0 | response to inhibitory odors, 6C [10]: 0 | response to inhibitory odors, 2B [11]: 0

c1ccncc1 [pyridine]
response to inhibitory odors, 2A [1]: 0 | response to inhibitory odors, 7B [2]: 0 | response to inhibitory odors, 6A [3]: 0 | response to inhibitory odors, 7C [12]: 0 | response to inhibitory odors, 4B [4]: 0 | response to inhibitory odors, 4A [5]: 0 | response to inhibitory odors, 2C [6]: 0 | response to inhibitory odors, 6B [7]: 0 | response to inhibitory odors, 7A [9]: 0 | response to inhibitory odors, 6C [10]: 0 | response to inhibitory odors, 2B [11]: 0

CCCCCN [pentylamine]
response to inhibitory odors, 2A [1]: 0 | response to inhibitory odors, 7B [2, 13]: 0 | response to inhibitory odors, 6A [3]: 0 | response to inhibitory odors, 7C [12]: 0 | response to inhibitory odors, 4B [4, 13]: 0 | response to inhibitory odors, 4A [5]: 0 | response to inhibitory odors, 2C [6]: 0 | response to inhibitory odors, 6B [7]: 0 | response to inhibitory odors, 7A [9]: 0 | response to inhibitory odors, 6C [10]: 0

CCCCCCCCOC(C)=O [n-octyl acetate]
response to inhibitory odors, 2A [1]: 0 | response to inhibitory odors, 7B [2, 13]: 0 | response to inhibitory odors, 6A [3]: 0 | response to inhibitory odors, 7C [12]: 0 | response to inhibitory odors, 4A [5]: 0 | response to inhibitory odors, 2C [6]: 0 | response to inhibitory odors, 6B [7]: 0 | response to inhibitory odors, 4C [8]: 0 | response to inhibitory odors, 7A [9]: 0 | response to inhibitory odors, 6C [10]: 0 | response to inhibitory odors, 2B [11]: 0

CNC [dimethyl amine]
response to inhibitory odors, 2A [1]: 0 | response to inhibitory odors, 7B [2]: 0 | response to inhibitory odors, 6A [3]: 0 | response to inhibitory odors, 4B [4]: 0 | response to inhibitory odors, 4A [5]: 0 | response to inhibitory odors, 2C [6]: 0 | response to inhibitory odors, 6B [7]: 0 | response to inhibitory odors, 4C [8]: 0 | response to inhibitory odors, 7A [9]: 0 | response to inhibitory odors, 2B [11]: 0

CCC(=O)O [propionic acid]
response to inhibitory odors, 2A [1]: 0 | response to inhibitory odors, 7B [2, 13]: 0 | response to inhibitory odors, 6A [3]: 0 | response to inhibitory odors, 7C [12]: 0 | response to inhibitory odors, 4A [5]: 0 | response to inhibitory odors, 2C [6]: 0 | response to inhibitory odors, 4C [8]: 0 | response to inhibitory odors, 7A [9]: 0 | response to inhibitory odors, 6C [10]: 0 | response to inhibitory odors, 2B [11]: 0

CC(=O)O [acetic acid]
response to inhibitory odors, 2A [1]: 0 | response to inhibitory odors, 7B [2]: 0 | response to inhibitory odors, 6A [3]: 0 | response to inhibitory odors, 4A [5]: 0 | response to inhibitory odors, 2C [6]: 0 | response to inhibitory odors, 4C [8]: 0 | response to inhibitory odors, 7A [9]: 0 | response to inhibitory odors, 6C [10]: 0 | response to inhibitory odors, 2B [11]: 0

CCCCCCN [hexylamine]
response to inhibitory odors, 2A [1]: 0 | response to inhibitory odors, 7B [2, 13]: 0 | response to inhibitory odors, 6A [3]: 0 | response to inhibitory odors, 7C [12]: 0 | response to inhibitory odors, 4B [4, 13]: 0 | response to inhibitory odors, 4A [5]: 0 | response to inhibitory odors, 2C [6]: 0 | response to inhibitory odors, 6B [7]: 0 | response to inhibitory odors, 7A [9]: 0 | response to inhibitory odors, 6C [10]: 0 | response to inhibitory odors, 2B [11]: 0

CC(=O)C(C)=O [2,3-butanedione]
response to inhibitory odors, 2A [1]: 0 | response to inhibitory odors, 7B [2, 13]: 0 | response to inhibitory odors, 6A [3]: 0 | response to inhibitory odors, 7C [12]: 0 | response to inhibitory odors, 4B [4, 13]: 0 | response to inhibitory odors, 4A [5]: 0 | response to inhibitory odors, 2C [6]: 0 | response to inhibitory odors, 6B [7]: 0 | response to inhibitory odors, 4C [8]: 0 | response to inhibitory odors, 7A [9]: 0 | response to inhibitory odors, 6C [10]: 0
